Patent US7432051B2, “Erythropoietin and erythropoietin receptor expression in human cancer” (The Henry M. Jackson Foundation for the Advancement of …, priority 2000, dated 2008)

Columns and labels:
U251 cells [1] = assay: Chemotherapeutic drug toxicity, cell survival by MTT assay; format: cell-based, human; conditions: serum-free media
Description: (§1) U251 cells were grown in 96-well culture dishes to approximately 85% confluence. Serum was withdrawn overnight and 10 μM Cisplatin was added for twenty-four hours. […] Control groups underwent similar serum withdrawal but no Cisplatin exposure. Where indicated rhEpo or Epoetin-alfa was added thirty minutes prior to the addition of cisplatin. Serum withdrawal studies involved assessment of cell survival forty-eight hours following change to serum-free media. […] Where indicated, Epoetin-alfa, tyrosine kinase inhibitors or PI3K inhibitors were added at the time of change to serum-free media. The Student's T-test was used to determine statistically significant differences between treatment groups.

U251 cells [2] = assay: Hypoxia-sensing response (HIF-1α immunoblot, HIF-1 gelshift, RT-PCR and Western blot for Epo/EpoR); format: cell-based, human; conditions: 150 μM DFX, six-hour treatment
Description: Human glioma cell lines (ATCC) and normal human astrocytes (Clonetics) were cultured in Eagle's MEM medium supplemented with 10% fetal bovine serum, and 1% (v/v) penicillin/streptomycin. The cells were grown to 90% confluence in 10 cm culture dishes. For hypoxia treatment, the culture dishes were sealed in modulator incubator chamber, flushed with gas containing 1% oxygen, 5% carbon dioxide, 94% nitrogen for five minutes, and incubated at 37° C. for four to six hours. For desferrioxamine (DFX) treatment, the cells were cultured with same medium containing […] DFX and incubated in cell culture incubator. Paraffin sections (5 μm) of the human GBMs were prepared and stained by immunohistochemistry methods as described previously (Acs et al. (2001) Cancer Res. 61, 3561-3565).
(§2) After the treatments to the cell culture dishes described in Example 10, the cells were washed once with 10 ml cold Dulbecco's phosphate-buffered saline (PBS), scraped into 1.5 ml of PBS on ice, and pelleted by centrifugation at 2,000 rpm for three minutes at 4° C. Cell pellets were washed once with 5 packed cell volumes of buffer A (10 mM Tris-HCl (pH 7.5), 1.5 mM magnesium chloride, 10 mM KCl), freshly supplemented with Complete, EDTA-free Protease Inhibitor Cocktail (Roche) and 2 mM dithiothreitol (DTT)), and resuspended in four packed cell volumes of buffer A. After incubation on ice for 10 min, cell suspension was homogenized with thirty strokes in a glass douncer (Wheaton) with type-b pestle. Nuclei were pelleted at 1,000 rpm for ten minutes and resuspended in four packed nuclear volumes of buffer C (20 mM Tris-HCl (pH 7.5), 0.42 M KCl, 1.5 mM magnesium chloride, 20% glycerol, freshly supplemented with Complete, EDTA-free Protease Inhibitor Cocktail (Roche) and 2 mM DTT), and rotated for thirty minutes at 4° C. After centrifugation at 1,400 rpm for thirty minutes, the nuclear extracts were aliquoted and stored at −80° C. Protein concentration was determined by the method of Bradford with a commercial kit (Bio-Rad) using bovine serum albumin as standard. HIF-1α protein was detected by immunoblot analysis. Twenty five to thirty μg of nuclear extracts were boiled for five minutes in 2× denaturing buffer, and loaded onto SDS-7% polyacrylamide gels. After transfer, membranes were blocked with 5% milk in TBST (10 mM Tris-HCl, 150 mM NaCl, 0.1% Tween, pH 7.8) for one and a half hours at room temperature and subsequently incubated with mouse monoclonal HIF-1α antibody (Transduction Labs) for two hours. The membranes were washed with TBST three times and incubated with horseradish peroxidase-conjugated secondary antibody. Then, the membranes were washed three times with TBST and analyzed by enhanced chemiluminescence (Pierce). Analysis of EpoR and phosphotyrosine immunoreactivity was performed as reported previously (Acs et al. (2001) Cancer Res. 61, 3561-3565).
Oligonucleotide probe was generated by 5′ end labeling of the sense strand with gamma-[^32P]ATP (Dupont-NEN) and T4 polynucleotide kinase (Gibco-BRL), annealing to a ten-fold excess of antisense strand, and purification by using NucTrap Probe Purification Column (Stratagene). Binding reactions were carried out in a total volume of 20 μl containing 7.0 μg of nuclear extract and 0.2 μg of calf thymus DNA in buffer Z (20 mM Tris-HCl (pH 7.5), 0.1 M KCl, 0.2 mM EDTA, 20% glycerol, freshly supplemented with 2 mM DTT, 0.4 mM PMSF and 1 mM Na3PO4). […]

U251 cells [3] = assay: Serum withdrawal cell survival; format: cell-based, human; conditions: inhibitor added at change to serum-free media, forty-eight hours
Description: as §1

[4] = test system: cell lines derived from a wide range of tumors including two breast cancer cell lines; conditions: in particular low doses of erythropoietin; cited from earlier work
MCF-7 cells [5] = assay: Western blot of phosphotyrosine containing proteins; format: cell-based, human; conditions: five minute incubation; 250 units/ml rhEpo or 10 μM Epo mimetic peptide
U251 cells [6] = assay: Western blot of EpoR associated signaling (tyrosine phosphorylation, Jak-2, STAT-5, Akt); format: cell-based, human
Description: as §2
Using the Western blotting techniques described in Example 11 above, the immunoreactive EpoR expressed in human gliomas was further tested to see if it was functional. Cultured U251 cells were stimulated with recombinant human erythropoietin. […] Tyrosine phosphorylation could also be elicited by an Epo-mimetic peptide (EMP) and by Epoetin-alfa, the clinically used form of Epo (FIG. 11B). Using phospho-specific antibodies, we also detected rhEpo stimulated Jak-2 and STAT-5 tyrosine phosphorylation as well as phosphorylation of Akt (FIG. 12C).

MCF-7 cells [7] = assay: 3H-thymidine incorporation assay of DNA synthesis; format: cell-based, human
Description: (§3) To determine whether Epo exerts trophic effects on breast cancer cell lines, the effect of exogenously added Epo on DNA synthesis was examined in MCF-7 and BT-549 cells. DNA synthesis was measured using a ^3H-thymidine incorporation assay. Breast cancer cells plated in six well plates in one ml DMEM supplemented with 20% fetal bovine serum per well were allowed to incubate for sixteen hours. Cells were switched to one ml phenol-free DMEM at the time of treatments. recombinant human Epo (rhEpo) (10 units), or either anti-Epo or anti-EpoR antibodies ([…]) was then added directly to the medium and the cells cultured for another sixteen hours. Thymidine labeling was performed by adding one […] (NEN Life Sciences) for one hour and DNA associated counts were then determined by liquid scintillation as described (Assandri et al. (1999) J. Physiol. 516, 343-352).

BT-549 cells = assay: 3H-thymidine incorporation assay of DNA synthesis; format: cell-based, human
Description: as §3

[8] = 10 units/ml exogenous rhEpo, p<0.01
[9] = rhEpo (10 units) in one ml medium, sixteen hours, p<0.01

N.N.[Cl][Pt][Cl] [Cisplatin, reference compound]
cells killed (cell death) (U251 cells [1]; 10 μM Cisplatin, overnight / twenty-four hours): approximately 80%
survival fraction (U251 cells [1]; Cisplatin overnight): 0.2

CC(=O)N(O)CCCCCNC(=O)CCC(=O)N(O)CCCCCNC(=O)CCC(=O)N(O)CCCCCN [DFX, desferrioximine]
Epo mRNA expression (RT-PCR) (U251 cells [2]): prominent induction
EpoR mRNA expression (RT-PCR) (U251 cells [2]): not induced
HIF-1 gelshift activity (U251 cells [2]): dramatically upregulating
immunoreactive EpoR protein levels (U251 cells [2]): enhanced
level of HIF-1α protein (U251 cells [2]): dramatically upregulating

O=c1c(-c2ccc(O)cc2)coc2cc(O)cc(O)c12 [Genistein, reference compound]
effect on the protective effect of Epoetin-alfa (U251 cells [3]): blocked

rhEpo: recombinant human Epo (rhEpo), R & D systems
stimulation of cancer cell proliferation [4]: no significant stimulation
levels of phosphotyrosine containing proteins versus basal (MCF-7 cells [5]): markedly enhanced
Jak-2 tyrosine phosphorylation (U251 cells [6]; phospho-specific antibodies): stimulated
STAT-5 tyrosine phosphorylation (U251 cells [6]; phospho-specific antibodies): stimulated
phosphorylation of the PI3K substrate Akt (U251 cells [6]; phospho-specific antibodies): stimulated
tyrosine phosphorylation in several proteins (U251 cells [6]; serum free media, rhEpo 10 U/ml single dose, EMP and Epoetin-alfa thirty minute treatments): prominent, rapid, and long lasting activation
duration of tyrosine phosphorylation (U251 cells [6]; single dose 10 U/ml rhEpo): more than two hours
onset of tyrosine phosphorylation (U251 cells [6]; single dose 10 U/ml rhEpo): within one minute
enhancement of 3H-thymidine incorporation (MCF-7 cells [7]; [8]): about 25%
3H-thymidine incorporation, effect in words (MCF-7 cells [7]; rhEpo 100 units/ml (FIG. 2)): enhanced
potentiation of DNA synthesis (MCF-7 cells [7]; [9]): approximately 20%
enhancement of 3H-thymidine incorporation (BT-549 cells; [8]): about 25%
3H-thymidine incorporation, effect in words (BT-549 cells; rhEpo 100 units/ml (FIG. 2)): enhanced
potentiation of DNA synthesis (BT-549 cells; [9]): approximately 20%
